Source: patent US10174053B2, “2 substituted cephem compounds” (Glaxo Group Limited, priority 2012, dated 2019)
Values after ≈ are worked out from the molar mass of the structure shown.

Tests used:
Test in all cases: In vitro antimicrobial activity, MIC by broth microdilution (CLSI)
Format in all cases: cell-based
K. pneumoniae SR01358 = details: Klebsiella pneumoniae, SR01358; KPC-2, ESBL and KPC-type carbapenemase producing strain; 5×10^5 cfu/mL; cation-adjusted Iso-Sensitest broth containing human Apo-transferrin; read-out: Minimum Inhibitory Concentration (MIC) K. pneumoniae SR01358
Experimental: (§1) Compound (I) of the invention was evaluated for in vitro antimicrobial activity thereof.
(§2) Measurement of Minimum Inhibitory Concentration (MIC: μg/mL) was conducted according to CLSI (Clinical and Laboratory Standards Institute) method, and the amount of bacteria for inoculation was 5×10^5 cfu/mL, and cation-adjusted Iso-Sensitest broth containing human Apo-transferrin was used as a test medium, and the experiment was conducted using broth microdilution method. The bacteria used are listed below.

A. baumannii JMI7 = details: Acinetobacter baumannii, JMI7; PER-1, OXA-23, 51, ESBL and OXA-type carbapenemase producing strain; 5×10^5 cfu/mL; cation-adjusted Iso-Sensitest broth containing human Apo-transferrin; read-out: Minimum Inhibitory Concentration (MIC) A. baumannii JMI:7
Experimental: as §1, §2

E. Coli JMI1890 = details: Escherichia coli; PER-1, TEM-1, ESBL producing strain; 5×10^5 cfu/mL; cation-adjusted Iso-Sensitest broth containing human Apo-transferrin; read-out: Minimum Inhibitory Concentration (MIC) E. Coli JMI:1890
Experimental: as §1, §2

A. baumannii JMI2346 = details: Acinetobacter baumannii, JMI2346; OXA-51, TEM, ESBL and OXA-type carbapenemase producing strain; 5×10^5 cfu/mL; cation-adjusted Iso-Sensitest broth containing human Apo-transferrin; read-out: Minimum Inhibitory Concentration (MIC) A. baumannii JMI:2346
Experimental: as §1, §2

SMILES	MIC (K. pneumoniae SR01358)	MIC (A. baumannii JMI7)	MIC (E. Coli JMI1890)	MIC (A. baumannii JMI2346)
C[C@@H]1S[C@@H]2[C@H](NC(=O)/C(=N\OC(C)(C)C(=O)O)c3csc(N)n3)C(=O)N2C(C(=O)O)=C1C[N+]12CCC(CNC(=O)/C(=N\OC(C)(C)C(=O)[O-])c3ccc(O)c(O)c3Cl)(CC1)CC2 [Compound I-99]	≤ 0.031 µg/mL	2 µg/mL (≈ 2.17 µM)	1 µg/mL (≈ 1.09 µM)	16 µg/mL (≈ 17.4 µM)
C[C@@H]1S[C@@H]2[C@H](NC(=O)/C(=N\OC(C)(C)C(=O)[O-])c3csc(N)n3)C(=O)N2C(C(=O)O)=C1C[N+]12CCC(CNC(=O)/C(=N\OCC(=O)O)c3ccc(O)c(O)c3Cl)(CC1)C2 [Compound I-101]	≤ 0.031 µg/mL	0.25 µg/mL (≈ 0.284 µM)	0.063 µg/mL (≈ 0.0716 µM)	0.5 µg/mL (≈ 0.569 µM)
C[C@@H]1S[C@@H]2[C@H](NC(=O)/C(=N\OC(C)(C)C(=O)[O-])c3csc(N)n3)C(=O)N2C(C(=O)[O-])=C1C[N+]12CCC(Cn3ncc4c(Cl)c(O)c(O)cc4c3=O)(CC1)CC2.[Na+] [Compound I-113]	≤ 0.031 µg/mL	0.25 µg/mL	0.25 µg/mL	4 µg/mL
CC[N+](CC)(CCN1C(=O)c2ccc(O)c(O)c2C1=O)CC1=C(C(=O)O)N2C(=O)[C@@H](NC(=O)/C(=N\OC(C)(C)C(=O)[O-])c3csc(N)n3)[C@H]2S[C@H]1C [Compound I-36]	0.125 µg/mL (≈ 0.165 µM)	0.5 µg/mL (≈ 0.658 µM)	0.5 µg/mL (≈ 0.658 µM)	4 µg/mL (≈ 5.26 µM)
C[C@@H]1S[C@@H]2[C@H](NC(=O)/C(=N\O[C@@H](CC(=O)[O-])C(=O)[O-])c3csc(N)n3)C(=O)N2C(C(=O)[O-])=C1C[N+]12CCC(CC1)N(C(=O)C(=O)c1cc(O)c(O)c(Cl)c1)CC2.[Na+].[Na+] [Compound I-17]	≤ 0.031 µg/mL	4 µg/mL	2 µg/mL	16 µg/mL
C[C@@H]1S[C@@H]2[C@H](NC(=O)/C(=N\OC(C)(C)C(=O)[O-])c3csc(N)n3)C(=O)N2C(C(=O)O)=C1C[N+]12CCC(CC1)N(C(=O)/C(=N\O)c1ccc(O)c(O)c1Cl)CC2 [Compound I-137]	≤ 0.031 µg/mL	0.5 µg/mL (≈ 0.609 µM)	0.25 µg/mL (≈ 0.304 µM)	2 µg/mL (≈ 2.44 µM)
C[C@@H]1S[C@@H]2[C@H](NC(=O)/C(=N\OC(C)(C)C(=O)[O-])c3csc(N)n3)C(=O)N2C(C(=O)[O-])=C1C[N+]1(CCNC(=O)C(=O)c2ccc(O)c(O)c2)CCCC1.[Na+] [Compound I-109]	0.063 µg/mL	1 µg/mL	0.5 µg/mL	8 µg/mL
C[C@@H]1S[C@@H]2[C@H](NC(=O)/C(=N\OC(C)(C)C(=O)[O-])c3csc(N)n3)C(=O)N2C(C(=O)[O-])=C1C[N+]1(C)C[C@H]2CN(C(=O)c3cc(O)c(O)c(F)c3)C[C@H]2C1.[Na+] (stereo partly drawn) [Compound I-69]	≤ 0.031 µg/mL	1 µg/mL	0.25 µg/mL	8 µg/mL
C[C@@H]1S[C@@H]2[C@H](NC(=O)/C(=N\OC(C)(C)C(=O)[O-])c3csc(N)n3)C(=O)N2C(C(=O)O)=C1C[N+]12CCC(CNC(=O)/C(=N\O)c3cc(O)c(O)c(F)c3)(CC1)CC2 [Compound I-136]	≤ 0.031 µg/mL	1 µg/mL (≈ 1.22 µM)	0.5 µg/mL (≈ 0.611 µM)	2 µg/mL (≈ 2.44 µM)
C[C@@H]1S[C@@H]2[C@H](NC(=O)/C(=N\OC(C)(C)C(=O)[O-])c3csc(N)n3)C(=O)N2C(C(=O)[O-])=C1C[N+]1(CCNC(=O)C(=O)c2cc(O)c(O)c(Cl)c2)CCCC1.[Na+] [Compound I-8]	0.25 µg/mL	1 µg/mL	1 µg/mL	16 µg/mL
C[C@@H]1S[C@@H]2[C@H](NC(=O)/C(=N\OC(C)(C)C(=O)[O-])c3csc(N)n3)C(=O)N2C(C(=O)[O-])=C1C[N+]12CCC(CNC(=O)C(=O)c3cc(O)c(O)c(F)c3)(CC1)CC2.[Na+] [Compound I-81]	≤ 0.031 µg/mL	2 µg/mL	0.5 µg/mL	8 µg/mL
C[C@@H]1S[C@@H]2[C@H](NC(=O)/C(=N\OC(C)(C)C(=O)[O-])c3csc(N)n3)C(=O)N2C(C(=O)[O-])=C1C[N+]12CCC(CNC(=O)C(=O)c3ccc(O)c(O)c3)(CC1)CC2.[Na+] [Compound I-107]	≤ 0.031 µg/mL	2 µg/mL	0.5 µg/mL	4 µg/mL
